Results taken from the Kinase Knowledgebase extract (Sharma et al. 2016).
pIC50: −log10 of the molar value.

Target: MAPK14 (human) (UniProt Q16539)
Assay: Inhibition of MAPK14 Kinase Activtiy

Sequence of MAPK14 (human) (Q16539 whole entry, looked up): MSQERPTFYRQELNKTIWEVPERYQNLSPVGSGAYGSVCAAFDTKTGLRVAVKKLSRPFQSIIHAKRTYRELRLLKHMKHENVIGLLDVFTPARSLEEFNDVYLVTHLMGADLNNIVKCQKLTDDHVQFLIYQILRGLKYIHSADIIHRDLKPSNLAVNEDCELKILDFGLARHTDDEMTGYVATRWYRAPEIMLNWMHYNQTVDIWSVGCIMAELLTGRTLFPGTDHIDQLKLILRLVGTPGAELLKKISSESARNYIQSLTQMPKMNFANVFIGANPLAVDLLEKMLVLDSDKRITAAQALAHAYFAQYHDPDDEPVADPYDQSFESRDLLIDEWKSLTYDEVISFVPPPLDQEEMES

Row | SMILES | pIC50
1 | CC(C)C[C@H](NC[C@@H](O)COc1cc(-c2ccc(F)cc2Cl)c2ccc(=O)n(-c3c(F)cccc3F)c2c1)C(=O)O | > 7.00
2 | CC(C)C[C@H](NCCCCCOc1cc(-c2ccc(F)cc2Cl)c2ccc(=O)n(-c3c(Cl)cccc3Cl)c2c1)C(=O)O | > 7.00
3 | CC(C)C[C@H](NCCCOc1cc(-c2ccc(F)cc2Cl)c2ccc(=O)n(-c3c(F)cccc3F)c2c1)C(=O)O | > 7.00
4 | CC(C)C[C@H](NC[C@H](O)COc1cc(-c2ccc(F)cc2Cl)c2ccc(=O)n(-c3c(F)cccc3F)c2c1)C(=O)O | > 7.00
5 | CC(C)C[C@H](NCCc1cc(-c2ccc(F)cc2Cl)c2ccc(=O)n(-c3c(Cl)cccc3Cl)c2c1)C(=O)O | > 7.00
6 | CC(C)C[C@H](NCCc1cc(-c2ccc(F)cc2Cl)c2ccc(=O)n(-c3c(F)cccc3F)c2c1)C(=O)O | > 7.00
7 | O=C(O)[C@@H](NCCCOc1cc(-c2ccc(F)cc2Cl)c2ccc(=O)n(-c3c(F)cccc3F)c2c1)C1CCCCC1 | > 7.00
8 | CC(C)C[C@H](NCCCOc1cc(-c2ccc(F)cc2Cl)c2ccc(=O)n(-c3c(Cl)cccc3Cl)c2c1)C(=O)OC1CCN(C)CC1 | > 7.00
9 | CC(C)(C)[C@H](NCCCOc1cc(-c2ccc(F)cc2Cl)c2ccc(=O)n(-c3c(Cl)cccc3Cl)c2c1)C(=O)O | > 7.00
10 | CC(C)C[C@H](NCCCOc1cc(-c2ccc(F)cc2Cl)c2ccc(=O)n(-c3c(Cl)cccc3Cl)c2c1)C(=O)OC(C)C | > 7.00
11 | O=C(O)[C@@H](NCCCOc1cc(-c2ccc(F)cc2Cl)c2ccc(=O)n(-c3c(Cl)cccc3Cl)c2c1)c1ccccc1 | > 7.00

Second part, the molecule after the results:

Row | pIC50 | SMILES
12 | > 7.00 | CC(C)C[C@H](NC1CCC(c2cc(-c3ccc(F)cc3Cl)c3c(c2)N(c2c(Cl)cccc2Cl)C(=O)CC3)CC1)C(=O)O (stereo not given in full)
13 | > 7.00 | CC(C)C[C@H](NCCCOc1cc(-c2ccc(F)cc2F)c2ccc(=O)n(-c3c(F)cccc3F)c2c1)C(=O)O
14 | > 7.00 | CC(C)C[C@H](NCCCOc1cc(-c2ccc(F)cc2Cl)c2ccc(=O)n(-c3c(Cl)cccc3Cl)c2c1)C(=O)O
15 | > 7.00 | O=C(O)[C@@H](NCCCOc1cc(-c2ccc(F)cc2Cl)c2ccc(=O)n(-c3c(Cl)cccc3Cl)c2c1)C1CCCCC1
16 | > 7.00 | CC(C)(C)OC[C@H](NCCCOc1cc(-c2ccc(F)cc2Cl)c2ccc(=O)n(-c3c(Cl)cccc3Cl)c2c1)C(=O)O
17 | > 7.00 | CC(C)C[C@H](NCCCOc1cc(-c2ccc(F)cc2Cl)c2ccc(=O)n(-c3ccccc3)c2c1)C(=O)O
18 | > 7.00 | O=C(O)[C@@H](NCCCOc1cc(-c2ccc(F)cc2Cl)c2ccc(=O)n(-c3c(F)cccc3F)c2c1)c1ccccc1
19 | > 7.00 | CC(C)C[C@H](NCCCOc1cc(-c2ccc(F)cc2Cl)c2ccc(=O)n(-c3c(Cl)cccc3Cl)c2c1)C(=O)OC1CCCC1
20 | > 7.00 | CC(C)(C)OC[C@H](NCCCOc1cc(-c2ccc(F)cc2Cl)c2ccc(=O)n(-c3c(Cl)cccc3Cl)c2c1)C(=O)OC1CCCC1
